# Data published in patent US4136163A, “P-Menthane carboxamides having a physiological cooling effect” (Wilkinson Sword Limited, priority 1971, dated 1979).
# Legend:
# [1] = literature; cited from earlier work
# cold receptors [2] = test: Threshold test: minimum quantity of compound on filter paper square on tongue giving a noticeable cooling effect, selected panel of 6 people; type: in vivo, human; details: panel of 6 people, cooling reported 50% of the time
# From the text: For example, a controlling factor in the onset of cooling effect, its intensity and longevity will be the rate of penetration of the compounds through the epidermis and this will vary in different locations on the human body.
# It will also benoted that the described test procedure is done on a statistical basis. This is necessary since sensitivity to these compounds will vary not only from compound to compound and from one part of the body to another, but also from one individual to another. Tests of this nature are commonly used in the testing of the organoleptic properties, e.g. taste, smell etc. of organic and inorganic compounds, see Kirk-Othmer: Encyclopedia of Chemical Technology, 2nd. Ed.
# The following test procedure is aimed at determining the minimum quantity of the test compound required to produce a noticeable cooling effect on a person of average sensitivity, this minimum quantity being termed the threshold for that particular compound. The tests are carried out on a selected panel of 6 people of median sensitivity to 1-menthol.
# To select a test panel of average sensitivity the following procedure is used. Known quantities of 1-menthol in solution in petroleum ether (bp.40-60) are placed on 5 mm. squares of filter paper, whereafter the solvent is allowed to evaporate. A panel of observers is enrolled and asked to place one impregnated square at a time on the tongue and to report on the presence or absence of a cooling effect. […] Conveniently, one starts with squares containing 2.0 μg. 1-menthol, the amount on each successive square being half that of the preceding square, i.e. the second test square will contain 1.0 μg, the third 0.5 μg and so on. Each quantity is tested on the tongue at least 10 times. In this way, the thresholds to cold receptor stimulus by 1-menthol are determined for each individual of the panel, the threshold for each individual being that amount of 1-menthol for which, in a series of not less than 10 test applications, a cooling effect is reported 50% of the time.
# To test the activity of compounds according to this invention, the above procedure is repeated using only the 6 selected panel members of average sensitivity to 1-menthol. The individual thresholds for each test compound on each of the 6 selected panel members are determined and averaged. Those compounds whose average threshold on the select test panel is 100 μg or less are regarded as having cooling activity in accordance with this invention.
# cold receptors [3] = test: Cooling effect of consumer product applied to skin (face, scalp, lips, forehead); type: in vivo, human
# Method: Into two separate samples of the base lotion were added 2.0% by weight based on the total composition of N-ethyl-p-menthane-3-carboxamide and N,N-dimethyl-p-menthane-3-carboxamide, each into a different one of the two samples.
# To the recipe was added 3.0%, based on the total composition of N-p-menth-3-oylglycine methyl ester. […]
# Sodium lauryl ether sulphate, 10 g., was dispersed in 90 g. water in a high speed mill. To the dispersion was added 3.3% by weight of N-(2-hydroxy-n-propyl)-p-menthane-3-carboxamide. […]
# The sodium stearate was dissolved by stirring in a warm mixture of the ethanol propylene glycol and water. To the solution was added the perfume and 3.0% of N-(2-hydroxy-n-propyl)-p-menthane-3-carboxamide and the mixture then allowed to solidify into a waxy cake. […]
# This Example illustrates now the physiological cooling effect of the compounds of this invention varies according to the locality of application.
# In the course of grinding there was added 3.0% of N-n-propyl-p-menthane-3-carboxamide. […]
# To this liquid was added 1.0% of N-ethyl-p-menthane-3-carboxamide. A paper tissue was then soaked in the liquid.
# cold receptors [4] = test: Cooling effect of consumer product in the mouth / on the tongue; type: in vivo, human
# Method: To the compositions was added 0.1% of N-n-propyl-p-menthane-3-carboxamide.
# Shortly before completion of the blending operation 0.5% by weight of N-(p-menth-3-oyl) morpholine was added to the blender. […]
# N-(2-hydroxy-n-propyl)-p-menthane-3-carboxamide was added to a proprietary gin in an amount of 0.08%.
# 99.5% sucrose and 0.5% citric acid were carefully fused together in the presence of a trace of water. Just before casting the melt onto a chilled plate 0.13% of N,N-dimethyl-p-menthane-3-carboxamide were repidly stirred in. The melt was then cast.
# Water was added to icing sugar at 50° C to form a stiff paste. 0.05% of N-ethyl-p-menthane-3-carboxamide was then stirred into a paste and the mixture allowed to set. […]
# A proprietary ice cream mixture was mixed in accordance with the manufactures instructions. Shortly before freezing N-p-menth-3-oyl-β-aminopropionic acid n-propyl ester was added in an amount of 0.05%. […]
# cold receptors [5] = test: Cooling effect in the stomach after swallowing tablet; type: in vivo, human; details: 0.05%
# From the text: Added to the mixture during grinding was 0.05% of N-ethyl-p-menthane- 3-carboxamide. After mixing the mixture was pressed into 0.5 g tablets.
# Soluble aspirin (calcium acetylsalicylate) tablets were impregnated with 0.05% of N-ethyl-p-menthane-3-carboxamide by absorption in the tablet of a metered drop of an ethanolic solution of the carboxamide.
# cold receptors [6] = test: Cooling effect of eye lotion when used to bathe the eyes; type: in vivo, human; details: Example 9, eye lotion, 0.003%, eyeball and eyelids
# Method: To the formulation was added 0.003%, based on the total composition of N-(2-hydroxyethyl)-p-menthane carboxamide.
# [7] = Example 2, after shave lotion, 2.0%, face
compound,measurement,setting,value
"CC(C)C1CCC(C)C(O)C1O (stereo not shown) [2,3-p-menthane diol]",cooling taste or refreshing effect,[1],sharp cooling taste
"CC1CCC(C(C)C)C(C(=O)N2CCOCC2)C1 (stereo not shown) [--CH2 CH2 OCH2 CH2 --, N-(p-menth-3-oyl)morpholine]",Threshold (average minimum quantity to produce a noticeable cooling effect),cold receptors [2],5.5 µg
same,cooling effect on skin,"cold receptors [3]; Example 11, applied to the skin as an alcoholic solution",relatively weak
same,cooling effect on mucous membranes of the mouth,"cold receptors [4]; Example 11, applied to the mucous membranes of the mouth",very pronounced
same,cooling effect,"cold receptors [4]; Example 11, toothpaste, 0.5%, mouth",a strong cooling effect is noticed in the mouth
"CC1CCC(C(C)C)C(C(=O)N(CCO)CCO)C1 (stereo not shown) [--CH2 CH2 OH, --CH2 CH2 OH, N,N-bis(2-hydroxyethyl)-p-menthane-3-carboxamide]",Threshold (average minimum quantity to produce a noticeable cooling effect),cold receptors [2],50 µg
same,cooling effect,"cold receptors [4]; Example 18, chewing gum, 5.0%, mouth",marked cooling effect in the mouth
"CC1CCC(C(C)C)C(C(=O)N(C)C)C1 (stereo not shown) [--CH3, --CH3, N,N-dimethyl-p-menthane-3-carboxamide]",Threshold (average minimum quantity to produce a noticeable cooling effect),cold receptors [2],1.5 µg
same,cooling effect,"cold receptors [3]; Example 1, aerosol shaving soap, 1.0%, face",a fresh cool sensation was distinctly noticeable on the face
same,cooling effect,cold receptors [3]; [7],a clearly noticeable cooling effect became apparent after a short interval of time
same,cooling effect,"cold receptors [4]; Example 16, boiled sweet, 0.13%, mouth",marked cooling effect on the mouth
"CCNC(=O)C1CC(C)CCC1C(C)C (stereo not shown) [H, --C2 H5, N-ethyl-p-menthane-3-carboxamide]",Threshold (average minimum quantity to produce a noticeable cooling effect),cold receptors [2],0.3 µg
same,cooling effect,cold receptors [3]; [7],a clearly noticeable cooling effect became apparent after a short interval of time
same,cooling effect,"cold receptors [3]; Example 24, cleansing tissue, 1.0% in liquid, skin",a fresh cool sensation developed on the skin after a short interval
same,cooling effect,"cold receptors [4]; Example 12, toothpick, 0.01 mg, tongue",a distinct cooling effect is noticeable after a short period of time
same,cooling effect,"cold receptors [4]; Example 17, mint sweet, 0.05%, mouth",characteristic cooling effect in the mouth of peppermint
same,cooling effect,"cold receptors [4]; Example 25, water soluble adhesive on label, 0.025%, tongue",a pleasant cooling sensation on the tongue
same,cooling effect,"cold receptors [5]; Example 20, indigestion tablet",after a short interval of time a noticeable cooling effect in the stomach
same,cooling effect,"cold receptors [5]; Example 23, soluble aspirin tablet",a quite noticeable cooling effect developed in the stomach after a short interval
"CCCNC(=O)C1CC(C)CCC1C(C)C (stereo not shown) [H, --C3 H7 (n), N-n-propyl-p-menthane-3-carboxamide]",Threshold (average minimum quantity to produce a noticeable cooling effect),cold receptors [2],0.8 µg
same,cooling effect,"cold receptors [3]; Example 13, talcum powder, 3.0%",freshening and cooling effect
same,cooling effect,"cold receptors [4]; Example 10, mouthwash concentrate, 0.1%, diluted with approximately 10 times its own volume of water",a strong and long lasting cooling effect is obtained in the mouth
"CC1CCC(C(C)C)C(C(=O)NC(C)(C)CO)C1 (stereo not shown) [H, --C(CH3)2 CH2 OH, N-(1,1-dimethyl-2-hydroxyethyl)-p-menthane-3-carboxamide]",Threshold (average minimum quantity to produce a noticeable cooling effect),cold receptors [2],0.4 µg
same,cooling effect,"cold receptors [4]; Example 14, soft drink, 0.02% in concentrate, diluted with water",pleasantly cool after-effect
"CC1CCC(C(C)C)C(C(=O)NCCO)C1 (stereo not shown) [H, --CH2 CH2 OH, N-(2-hydroxyethyl)-p-menthane carboxamide]",Threshold (average minimum quantity to produce a noticeable cooling effect),cold receptors [2],5 µg
same,cooling effect,cold receptors [6],a cool fresh sensation is apparent on the eyeball and eyelids
"CC(O)CNC(=O)C1CC(C)CCC1C(C)C (stereo not shown) [H, --CH2 CH(OH)CH3, N-(2-hydroxy-n-propyl)-p-menthane-3-carboxamide]",Threshold (average minimum quantity to produce a noticeable cooling effect),cold receptors [2],5.5 µg
same,cooling effect,"cold receptors [3]; Example 5, hair shampoo, 3.3%, scalp","a fresh, cool sensation is noticed on the scalp"
same,cooling effect,"cold receptors [3]; Example 7, solid cologne, 3.0%, forehead",a very strong and long lasting cooling effect is obtained
same,cooling effect,"cold receptors [4]; Example 15, gin, 0.08%, mouth",a very strong cooling after-effect is obtained in the mouth
"CNC(=O)C1CC(C)CCC1C(C)C (stereo not shown) [H, --CH3, N-methyl-p-menthane-3-carboxamide]",Threshold (average minimum quantity to produce a noticeable cooling effect),cold receptors [2],1.1 µg
same,cooling effect,"cold receptors [3]; Example 4, deodorant composition, 1.3%, skin",definte cooling sensation on the skin
"CCC(CC)C(=O)N(C)C [N,N-Dimethyl 2-ethylbutanamide]",cooling taste or refreshing effect,[1],refreshing effect
CCCOC(=O)CCNC(=O)C1CC(C)CCC1C(C)C (stereo not drawn) [N-p-menth-3-oyl-β-aminopropionic acid n-propyl ester],cooling effect,"cold receptors [4]; Example 19, ice cream, 0.05%",a cooling effect is noticeable which persists after the cooling effect attributable to the temperature of the ice cream has disappeared
